Measurements: ChEMBL document CHEMBL1166012, “New aryldithiolethione derivatives as potent histone deacetylase inhibitors” (Bioorg Med Chem, 2010)

What was measured:
Histone deacetylase = assay: Inhibition of HDAC in human HeLa cells extracts after 60 mins by fluorescence assay; assay type: cell-based
A549 = assay: Antiproliferative activity against human A549 cells after 48 hrs; assay type: functional, cell-based; settings: A549, 48 h

Row | IC50 (Histone deacetylase) [µM] | IC50 (A549) [µM] | Compound
1 | 1.19 | 1.68 | O=C(CCCCCCC(=O)Nc1ccccc1)NOC(=O)c1ccc(-c2cssc2=S)cc1
2 | 0.01 | 6.1 | O=C(CCCCCCOc1ccc(-c2cc(=S)ss2)cc1)NO
3 | 46.4 | > 1000 | O=C(O)c1csc(=S)s1 [ACS 5]
4 | 0.08 | 5.4 | O=C(CCCCOc1ccc(-c2cc(=S)ss2)cc1)NO
5 | 50 | > 1000 | O=C(CCCCOc1ccc(-c2cc(=S)ss2)cc1)Nc1ccccc1
6 | 100 | 103 | O=C(O)c1ccc(-c2cssc2=S)cc1
7 | 32 | 31.7 | Nc1ccccc1NC(=O)CCCCCCOc1ccc(-c2cc(=S)ss2)cc1
8 | 100 | > 1000 | O=C(CCCCCCC(=O)Oc1ccc(-c2cc(=S)ss2)cc1)Nc1ccccc1
9 | 10 | 56 | O=C(CCCCCCC(=O)Oc1ccc(-c2cc(=S)ss2)cc1)NO
10 | 918.7 | 60.2 | O=C(CCCCCCOc1ccc(-c2cc(=S)ss2)cc1)Nc1ccccc1
11 | 0.25 | 3.4 | O=C(CCCCCCC(=O)Nc1ccccc1)NOC(=O)c1csc(=S)s1
12 | 82.85 | 880 | COc1cc(-c2cc(=S)ss2)ccc1OCC(=O)O
